Test results reported in patent US20060078535A1, “Anticancer compounds and methods” (The Regents of the University of Michigan, priority 2004, published 2006).
Entries after “also recorded” stand apart in the source; their conditions may differ. Where no end group is shown, it is not given here. [ ]: non-standard residue; d: D form. hCys = N[C@@H](CCS)C(=O)O

Tests used:
metastatic disease = conditions: human, in vivo
Description: Livant et al., “The PHSCN Sequence As An Anti-Invasive For Human Prostate Carcinoma Cells And As An Anti-Tumorigenic And Anti-Metastatic Agent For Rat Prostate Cancer” Cancer Research 60:309-320 (2000). […] In another embodiment, however, PHSCN (SEQ ID NO:86) peptide may also induce apoptosis. Furthermore, thrice-weekly PHSCN (SEQ ID NO:86) peptide intravenous doses (0.1 to 0.5 mg/kg) prevent cancer progression in metastatic ovarian cancer and metastatic prostate cancer patients in the Phase I clinical trial, for over a 6 to 10 month period.

[1] = system: DU 145 human prostate carcinoma; conditions: mouse, in vivo; cited from earlier work
[2] = system: neonatal, human fibroblasts; test: SU-ECM basement membrane invasion by fibroblasts; format: cell-based; conditions: with or without serum as stated
Excerpt: Since, during wound reepithelialization, keratinocytes migrate through the connective tissue of the provisional matrix to “wall off” portions of the wound, as well as through the adjacent stroma, it is not surprising that they are also stimulated to migrate through the matrix of SU-ECM invasion substrates by the PHSRN (SEQ ID NO: 1) sequence. […]
(§1) Invasion assays were coded and scored blindly by microscopic examination under phase contrast at 200- and 400-fold magnification. Each cell contacting an SU-ECM was scored for its position relative to the exterior or interior surfaces. […] The minimum viability of the cells in each assay was always ascertained at the time of assay by determining the fraction of spread, adherent cells on the bottom of each well scored.
(§2) An invasion frequency is defined as the fraction of cells in contact with basement membranes which were located in their interiors at the time of assay. […] Invasion frequencies were determined multiple times for each cell type assayed. For each type of cell assayed the mean and standard deviation of the invasion frequencies were calculated. […]

MatLyLu (MLL) cells = test: SU-ECM invasion assay, rat MatLyLu (MLL) prostate carcinoma cells; format: cell-based; conditions: 10% FCS, varying concentrations
Description: Adult Strongylocentrotus purpuratus sea urchins were obtained from Pacific BioMarine, and their embryos were cultured to the early pluteus stage in artificial sea water at 15° C. SU-ECM were prepared from them by treatment with nonionic detergent and strerilized by dilution in the appropriate media. […]
as §1, §2

[3] = biological target: T1, immobilized α5β1 integrin (UniProt P08648 42-1049; P05556 21-798); test: saturation binding of PHSCNGGK(biotin) to immobilized α5β1 integrin, read as optical density at 490 nm (FIG. 11)
T1 construct: also called α5β1 integrin receptor; α5β1 integrin fibronectin receptor
T1 sequence (P08648 42-1049, chain 1 of 2): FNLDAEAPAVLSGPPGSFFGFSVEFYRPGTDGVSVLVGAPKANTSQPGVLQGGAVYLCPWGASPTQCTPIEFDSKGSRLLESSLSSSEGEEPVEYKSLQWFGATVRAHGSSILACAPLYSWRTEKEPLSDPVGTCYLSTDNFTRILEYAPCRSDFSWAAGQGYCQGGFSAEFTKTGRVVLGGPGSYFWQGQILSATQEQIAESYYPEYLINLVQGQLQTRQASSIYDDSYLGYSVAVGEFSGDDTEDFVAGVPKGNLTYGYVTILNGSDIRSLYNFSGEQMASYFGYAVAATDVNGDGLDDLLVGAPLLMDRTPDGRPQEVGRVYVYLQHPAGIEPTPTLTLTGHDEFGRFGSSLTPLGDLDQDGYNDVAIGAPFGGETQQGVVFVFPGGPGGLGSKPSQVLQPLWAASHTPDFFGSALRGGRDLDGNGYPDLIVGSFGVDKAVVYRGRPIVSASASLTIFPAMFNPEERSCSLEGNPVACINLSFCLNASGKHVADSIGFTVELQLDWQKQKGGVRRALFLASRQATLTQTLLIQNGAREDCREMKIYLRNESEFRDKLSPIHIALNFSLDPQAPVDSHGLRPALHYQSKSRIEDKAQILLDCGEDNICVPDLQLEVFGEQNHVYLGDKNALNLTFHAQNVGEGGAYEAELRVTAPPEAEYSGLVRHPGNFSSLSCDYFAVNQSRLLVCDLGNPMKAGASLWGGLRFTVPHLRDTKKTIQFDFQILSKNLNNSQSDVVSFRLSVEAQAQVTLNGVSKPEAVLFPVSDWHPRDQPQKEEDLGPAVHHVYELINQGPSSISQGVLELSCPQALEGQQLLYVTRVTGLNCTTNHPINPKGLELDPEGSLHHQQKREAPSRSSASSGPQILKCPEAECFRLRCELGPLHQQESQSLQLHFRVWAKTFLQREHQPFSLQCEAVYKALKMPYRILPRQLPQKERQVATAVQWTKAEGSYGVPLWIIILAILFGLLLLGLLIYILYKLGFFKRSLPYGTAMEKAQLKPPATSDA
T1 sequence (P05556 21-798, chain 2 of 2): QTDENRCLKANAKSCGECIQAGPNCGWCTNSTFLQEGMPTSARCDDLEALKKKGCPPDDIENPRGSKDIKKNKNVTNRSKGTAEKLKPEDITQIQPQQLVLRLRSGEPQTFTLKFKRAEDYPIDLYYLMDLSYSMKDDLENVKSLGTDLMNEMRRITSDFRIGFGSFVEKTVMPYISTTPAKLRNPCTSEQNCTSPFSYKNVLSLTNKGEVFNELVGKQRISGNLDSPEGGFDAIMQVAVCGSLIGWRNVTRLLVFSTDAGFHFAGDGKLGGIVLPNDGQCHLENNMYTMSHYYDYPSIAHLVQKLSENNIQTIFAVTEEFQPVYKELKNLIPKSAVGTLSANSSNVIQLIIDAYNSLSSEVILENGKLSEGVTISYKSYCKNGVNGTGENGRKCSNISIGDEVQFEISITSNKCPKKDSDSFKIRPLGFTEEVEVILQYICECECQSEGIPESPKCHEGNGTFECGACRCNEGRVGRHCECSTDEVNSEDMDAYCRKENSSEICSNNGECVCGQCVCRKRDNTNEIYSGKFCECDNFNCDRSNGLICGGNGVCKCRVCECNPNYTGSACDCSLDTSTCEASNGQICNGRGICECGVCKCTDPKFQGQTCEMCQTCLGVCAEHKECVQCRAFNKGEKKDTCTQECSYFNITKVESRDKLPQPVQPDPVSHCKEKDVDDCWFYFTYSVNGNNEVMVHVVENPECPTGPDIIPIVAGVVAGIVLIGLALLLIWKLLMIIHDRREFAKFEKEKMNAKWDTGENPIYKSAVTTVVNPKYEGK

In the case of “Ac-PHSCN-NH2 (N-terminus and C-terminus assumed) [PHSCN, Pro-His-Ser-Cys-Asn]”, the “total treatment-emergent serious adverse events” value (metastatic disease) is listed as 11 and the “tolerability of treated mice” value [1] is listed as “no obvious loss of vigor or difficulty in healing”.

For “intact plasma fibronectin: purified bovine plasma fibronectin (Sigma)”, the “fibroblast invasion of SU-ECM basement membranes” value [2] was “fails to stimulate fibroblast invasion”.

With “PHS(hC)N: homo-cysteine containing peptide (PHS[hCys]N)” the “inhibition of serum-induced invasion” value (MatLyLu (MLL) cells) was “substantially inhibits invasion at lower concentrations; also recorded: completely inhibits invasion at higher concentrations”.

Work on Ac-PHSCNGG-{K(biotin)-NH2} (also: further groups not given here, also called biotinylated PHSCN peptide) [Ac-PHSCNGGK(biotin)-NH2] yielded a Kd [3] of 272 nM.
